The results in this text go back to US11780826B2 (Amgen Inc., priority 2017, dated 2023).

Assay [1] deals with Male CD rats. In words: Pressure-volume loop (PV Loop) protocol (invasive hemodynamics): ejection fraction (% EF) during intravenous infusion, MEE. Format: in vivo. More on the design: unit not given here. The settings on record: exposure at 10% increase in % EF from baseline, rat, corrected for rat plasma protein binding. The method, then:
(§1) Formulations: A compound as disclosed herein and water were admixed together. Either 30% wt/vol or 40% wt/vol of hydroxypropyl beta-cyclodextrin (HPBCD) was added and the mixture stirred until dissolved.
(§2) Echocardiography/ultrasound protocol: Serial echocardiography was conducted with the aid of an imaging system suitable for rodent cardiac ultrasound. Male CD rats (6-10 weeks of age; 6-12 animals per group) were cannulated with a jugular vein catheter to enable delivery of test article by intravenous infusion. […] An imaging probe was fixed in position to acquire short axis (SAX), motion (M)—mode images of the left cardiac ventricle at the level of the papillary muscles. Baseline data was acquired prior to initiating test article delivery. Test article (compound as disclosed herein in a HPBCD formulation), or vehicle control, was delivered with the aid of an infusion pump connected to the jugular vein catheter. Infusion rate of test article was increased at 15 min intervals, to a maximum of 5 mL/kg/hr. Ultrasound images were acquired at 5 min intervals. Additionally whole blood (not exceeding 10 uL) was collected via a tail nick at the same 5 min intervals for subsequent exposure determination.
(§3) Whole blood samples were analyzed by protein precipitation and liquid chromatography tandem mass spectrometry (LC-MS/MS) using multiple reaction monitoring (MRM) in positive ionization mode. The lower limit of quantitation (LLOQ) in the assay was 1 ng/mL and the upper limit of quantitation (ULOQ) was 10,000 ng/mL.
Pressure-volume loop (PV Loop) protocol (invasive hemodynamics): Left ventricular catheterization with a pressure-volume transducing catheter was applied as an alternative method to derive pharmacodynamic endpoints. A pressure volume conductance catheter was inserted via the left carotid artery and advanced into the left ventricle. The electrical signal emitted from the volume catheter was used to derive measures of relative volume at 5 min intervals. From these measures, left ventricular end diastolic volume (LVEDV) and left ventricular end systolic volume (LVESV) were derived. Ejection fraction was then derived using the following formula: % EF=((LVEDV−LVESV)/LVEDV)*100. Minimally efficacious exposure (MEE) was defined as the exposure at which a 10% increase in % EF from baseline was observed. The MEE was derived by plotting assayed exposures against % EF and using non-linear curve fitting (log(exposure) vs. % EF; variable slope, 4 parameters). Response to vehicle at each time point was averaged and all test article responses were normalized to baseline and subtracted from time matched (averaged) vehicle responses. Animal preparation, vehicle/test article delivery and blood sampling for exposure determination was as described in Echocardiography/ultrasound protocol.

Assay [2] deals with Bovine cardiac myofibrils. In words: In vitro model of dose-dependent myofibril ATPase modulation (AC1.4, pyruvate kinase/lactate dehydrogenase-coupled ATPase assay at pCa25). Type of assay: biochemical. To be noted: concentration at which ATPase activity was 1.4-fold higher than the bottom of the dose curve, mean of a minimum of two independent tests. The gist of the method: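 We measure calcium-buffered ATPase activity of detergent-skinned bovine cardiac myofibrils at pH 6.80 and 22° C with 1 mM ATP, using a PK/LDH-coupled NADH readout at 340 nm. Values come from four-parameter dose-response fits, averaged over at least two independent runs.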

The test system of assay [3] is Male CD rats. In words: Echocardiography/ultrasound protocol: fractional shortening (% FS) during intravenous infusion, MEE. Type of assay: in vivo. More on the design: unit not given here. The settings on record: rat, formulation 40% HPbCD, corrected for rat plasma protein binding. The method, then: as §1, §2, §3
Offline data analysis of the SAX M-mode ultrasound images was conducted to derive measures of left ventricular end diastolic diameter (LVEDD), left ventricular end systolic diameter (LVESD) and subsequent calculation of fractional shortening (% FS) using the following formula: % FS=((LVEDD−LVESD)/LVEDD)*100. Minimally efficacious exposure (MEE) was defined as the exposure at which a 10% increase in % FS from baseline was observed. The MEE was derived by plotting assayed exposures against % FS and using non-linear curve fitting (log(exposure) vs. % FS; variable slope, 4 parameters). Response to vehicle at each time point was averaged and all test article responses were normalized to baseline and subtracted from time matched (averaged) vehicle responses.

Where [4] appears, read: Echocardiography, exposure at 10% increase in % FS from baseline.

In the case of `CS(=O)(=O)c1cccc(C(=O)N2C[C@@H](F)C[C@@H]2C(=O)N[C@@H](c2ccc(C(F)(F)F)cc2F)C2CC2)c1` [Example 402, (2R,4S)—N—((R)-cyclopropyl(2-fluoro-4-(trifluoromethyl)phenyl)methyl)-4-fluoro-1-(3-(methylsulfonyl)benzoyl)pyrrolidine-2-carboxamide], the “MEE* (unbound), minimally efficacious exposure” value (shortened to “MEE* (unbound)”) with Male CD rats [1] (formulation 40% HPbCD) came out at 0.18. The compound further registered an AC1.4 in assay [2] of 1.381 µM.
Consider `C[C@@H](NC(=O)[C@H]1CCCN1C(=O)[C@H]1CCCN(S(=O)(=O)N2CC(C#N)C2)C1)c1ccc(F)cc1F` [Example 325, 1-(((3S)-1-((3-cyano-1-azetidinyl)sulfonyl)-3-piperidinyl)carbonyl)-N-((1R)-1-(2,4-difluorophenyl)ethyl)-D-prolinamide], for which the “MEE* (unbound)” value in the assay with Male CD rats [1] (formulation 40% HPbCD) is 0.41. The compound also displayed an AC1.4 in assay [2] of 0.8883 µM.
With `CS(=O)(=O)c1cccc(C(=O)N2CCC[C@@H]2C(=O)N[C@@H](c2ccc(C(F)(F)F)cc2F)C2CC2)c1` [Example 364, (R)—N—((R)-cyclopropyl(2-fluoro-4-(trifluoromethyl)phenyl)methyl)-1-(3-(methylsulfonyl)benzoyl)pyrrolidine-2-carboxamide], the “MEE* (unbound)” value in the assay with Male CD rats [3] (Echocardiography and PV Loop (both protocols named for this value)) is 0.27. The compound further returned an AC1.4 in assay [2] of 1.04 µM.
For `N#CC1CN(S(=O)(=O)N2CCC[C@H](C(=O)N3CCC[C@@H]3C(=O)NCc3ccc(C(F)F)cc3)C2)C1` [Example 261, 1-(((3S)-1-((3-cyano-1-azetidinyl)sulfonyl)-3-piperidinyl)carbonyl)-N-(4-(difluoromethyl)benzyl)-D-prolinamide], the “MEE* (unbound)” value in the assay with Male CD rats [1] (formulation 40% HPbCD) is recorded as 0.16. The AC1.4 in assay [2] is 0.6461 µM.
Turning to `CS(=O)(=O)c1cccc(C(=O)N2CCCC[C@@H]2C(=O)N[C@@H](c2cc(F)c(Cl)cc2F)C2CC2)c1` [Example 113, (2R)-N-((R)-(4-chloro-2,5-difluorophenyl)(cyclopropyl)methyl)-1-(3-(methylsulfonyl)benzoyl)-2-piperidinecarboxamide], the “MEE* (unbound)” value in the assay on Male CD rats [1] (formulation 40% HPbCD) is 0.04. The same compound yielded an AC1.4 in assay [2] of 0.1763 µM.
`N#CC1CN(S(=O)(=O)N2CCC[C@H](C(=O)N3CCC[C@@H]3C(=O)NCc3ccc(C(F)(F)F)cc3)C2)C1` [Example 67, 1-(((3S)-1-((3-cyano-1-azetidinyl)sulfonyl)-3-piperidinyl)carbonyl)-N-(4-(trifluoromethyl)benzyl)-D-prolinamide]: the “MEE* (unbound)” value with Male CD rats [1] (formulation 40% HPbCD pH 4 NaOH) came to 1.05. The AC1.4 in assay [2] was 0.07786 µM.
As for `CS(=O)(=O)c1cc(C(=O)N2[C@@H](C(=O)N[C@@H](c3cc(F)c(C(F)(F)F)cc3F)C3CC3)C[C@H]3C[C@H]32)ccn1` [Example 279, (1R,3R,5R)—N—((R)-cyclopropyl(2,5-difluoro-4-(trifluoromethyl)phenyl)methyl)-2-(2-(methylsulfonyl)isonicotinoyl)-2-azabicyclo[3.1.0]hexane-3-carboxamide], in the assay with Male CD rats [3] (setting [4]), the “MEE* (unbound)” value was determined as 0.68. The AC1.4 in assay [2] was found to be 0.7092 µM.
For the compound `C[C@@H](NC(=O)[C@H]1CCCN1C(=O)[C@H]1CCCN(S(=O)(=O)N2CC(C#N)C2)C1)c1ccc(Cl)cc1` [Example 135, N-((1R)-1-(4-chlorophenyl)ethyl)-1-(((3S)-1-((3-cyano-1-azetidinyl)sulfonyl)-3-piperidinyl)carbonyl)-D-prolinamide], in the assay on Male CD rats [1] (formulation 40% HPbCD), the “MEE* (unbound)” value worked out at 0.05. This compound returned an AC1.4 in assay [2] of 0.2215 µM.
Turning to `C[C@@H](NC(=O)[C@H]1CCCN1C(=O)[C@H]1CCCN(S(=O)(=O)N2CC(C#N)C2)C1)c1ccc(F)c(F)c1` [Example 301, 1-(((3S)-1-((3-cyano-1-azetidinyl)sulfonyl)-3-piperidinyl)carbonyl)-N-((1R)-1-(3,4-difluorophenyl)ethyl)-D-prolinamide], the “MEE* (unbound)” value in the assay on Male CD rats [1] (formulation 40% HPbCD) amounted to 0.19. The compound also returned an AC1.4 in assay [2] of 0.7943 µM.
On to `CS(=O)(=O)c1cc(C(=O)N2[C@@H](C(=O)N[C@@H](c3cc(F)c(Cl)cc3F)C3CC3)C[C@H]3C[C@H]32)ccn1` [Example 314, (1R,3R,5R)—N—((R)-(4-chloro-2,5-difluorophenyl)(cyclopropyl)methyl)-2-(2-(methylsulfonyl)isonicotinoyl)-2-azabicyclo[3.1.0]hexane-3-carboxamide], for which the “MEE* (unbound)” value with Male CD rats [3] (setting [4]) was 0.16. Moreover, the AC1.4 in assay [2] stood at 0.846 µM.
For the compound `N#CC1CN(S(=O)(=O)N2CCN[C@H](C(=O)N3CCC[C@@H]3C(=O)NCc3ccc(C(F)(F)F)cc3F)C2)C1` [Example 200, 1-(((2S)-4-((3-cyano-1-azetidinyl)sulfonyl)-2-piperazinyl)carbonyl)-N-(2-fluoro-4-(trifluoromethyl)benzyl)-D-prolinamide], in the assay on Male CD rats [1] (formulation 40% HPbCD), the “MEE* (unbound)” value turned out to be 1.02. Besides, the AC1.4 in assay [2] stood at 0.4083 µM.
With `CS(=O)(=O)c1cncc(C(=O)N2[C@@H](C(=O)N[C@@H](c3cc(F)c(C(F)(F)F)cc3F)C3CC3)C[C@H]3C[C@H]32)c1` [Example 214, (1R,3R,5R)—N—((R)-cyclopropyl(2,5-difluoro-4-(trifluoromethyl)phenyl)methyl)-2-(5-(methylsulfonyl)nicotinoyl)-2-azabicyclo[3.1.0]hexane-3-carboxamide], the “MEE* (unbound)” value in the assay on Male CD rats [3] (setting [4]) is on record as 0.12. Moreover, in assay [2], the AC1.4 was 0.4665 µM.
Turning to `N#CC1CN(S(=O)(=O)N2CCC[C@H](C(=O)N3CCC[C@@H]3C(=O)NCc3ccc(Cl)c(Cl)c3)C2)C1` [Example 91, 1-(((3S)-1-((3-cyano-1-azetidinyl)sulfonyl)-3-piperidinyl)carbonyl)-N-(3,4-dichlorobenzyl)-D-prolinamide], the “MEE* (unbound)” value with Male CD rats [1] (formulation 40% HPbCD) was 0.04. In assay [2], this compound displayed an AC1.4 of 0.1384 µM.
